Biological target: T1, 5-HT1A receptors (Rattus norvegicus, UniProt P19327)
T1 construct: Hippocampal tissue from the brains of male Sprague-Dawley rats; from tissue; host or cells: rat hippocampal membranes
T1 sequence (P19327 1-422): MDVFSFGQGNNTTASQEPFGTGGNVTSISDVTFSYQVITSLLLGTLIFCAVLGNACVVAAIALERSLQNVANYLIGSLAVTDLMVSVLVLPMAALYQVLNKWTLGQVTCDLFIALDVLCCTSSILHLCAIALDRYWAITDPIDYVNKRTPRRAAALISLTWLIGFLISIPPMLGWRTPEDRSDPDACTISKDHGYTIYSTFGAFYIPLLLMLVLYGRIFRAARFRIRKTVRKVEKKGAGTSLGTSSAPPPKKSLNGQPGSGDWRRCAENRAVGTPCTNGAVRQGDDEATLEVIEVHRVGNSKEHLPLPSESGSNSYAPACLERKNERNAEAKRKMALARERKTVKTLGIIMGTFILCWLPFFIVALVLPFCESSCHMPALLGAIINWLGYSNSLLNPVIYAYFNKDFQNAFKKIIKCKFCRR
Assay: 5-HT1A binding: inhibition of [3H]8-OH-DPAT binding to rat hippocampal membranes
Settings: for Ki: [3H]8-OH-DPAT 1 nM, rat hippocampal membranes, fit to data from three experiments; for inhibition at 1 µM: read-out: 5-HT1A % displacement at 10^−6 M
Experimental: Hippocampal tissue from the brains of male Sprague-Dawley rats (Charles River; weight range 150-250 g) was homogenised in ice-cold 50 mM Tris-HCl buffer (pH 7.7 when measured at 25° C., 1:40 w/v) and centrifuged at 40,000 g at 4° C. for 10 minutes. The pellet was rehomogenised in the same buffer, incubated at 37° C. for 10 minutes and centrifuged at 40,000 g at 4° C. for 10 minutes. The final pellet was resuspended in 50 mM Tris-HCl buffer (pH 7.7) containing 4 mM CaCl2, 0.1% L-ascorbic acid and 10 μM pargyline hydrochloride (equivalent to 6.25 mg wet weight of tissue/ml) and used immediately in the binding assay.
Membranes (400 μl; equivalent to 2.5 mg wet weight of tissue/tube) were incubated with 50 μl of [^3H]8-hydroxy-2-(dipropylamino)tetralin ([^3H]8-OH-DPAT) at a single concentration of 1 nM and 50 μl of distilled water (total binding) or 50 μl of test compound (at a single concentration of 10^−6 M or at 10 concentrations ranging from 10^−11-10^−3 M) or 50 μl of 5-HT (10 μM, non-specific binding) at 25° C. for 30 minutes. The incubation was terminated by rapid filtration under vacuum through Skatron 11734 filters using a Skatron Cell Harvester. Filters were washed with ice-cold 50 mM Tris-HCl buffer, pH 7.7 (at 25° C., wash setting 9,9,0). The scored filter paper discs were punched out into vials, scintillation fluid added and radioactivity determined by liquid scintillation counting.
For each of these tests measuring the ability of compounds of Formula I to displace standard ligands from 5-HT1A receptors and 5-hydroxytryptamine (5-HT) and noradrenaline (NA) reuptake sites and muscarinic receptors in vitro, the percentage displacement of specific binding of tritiated ligand by 10^−6 M test compound was calculated in the following way.
Firstly, specific binding of tritiated ligand in the absence (A) and presence (B) of test compound was determined:
In the absence of compound: A(dpm)=Total binding (dpm)−Non-specific binding (dpm) In the presence of compound (10^−6 M): B(dpm)=Binding at 10^−6M (dpm)−Non-specific binding (dpm)
The specific binding of tritiated ligand in the presence (B) of compound was then converted to a percentage of specific binding of tritiated ligand in the absence (A) of compound: % Specific binding at 10^−6 M=B(dpm)/A(dpm)×100
The percentage displacement of specific binding of tritiated ligand by the test compound (10^−6 M) was then obtained by subtraction of the percentage specific binding in the presence of compound from the percentage specific binding in the absence of compound, which is taken as the maximum binding and so equals 100%:
% Displacement at 10^−6 M=100−% Specific binding at 10^−6 M.
In some cases, displacement curves were then produced for compounds which displaced ≧50% of specific binding of the tritiated ligand at 10^−6 M using a range of concentrations of the compound. The Ki was then calculated by simultaneous fitting using equations derived from the Feldman equations by robust non-linear regression to data from three experiments simultaneously (De Lean et al., 1978; Munson and Rodbard, 1980; Feldman, 1992). Munson P J and Rodbard D. Ligand: a versatile computerised approach for characterisation of ligand binding systems. Anal Biochem 1980; 107: 220. Feldman HA. Mathematical theory of complex ligand binding systems at equilibrium: some methods for parameter fitting. Anal Biochem 1992: 48, 317. De Lean A, Munson P J and Rodbard D. Simultaneous analysis of families of sigmoidal curves: application to bioassay, radioligand assay, and physiological dose-response curves. Am J Physiol 1978: 235 (2), E97-E102.
The results obtained in the above tests for 5-HT1A binding and 5-HT and NA uptake and muscarinic binding for the final products of Examples 1-39 hereinafter are given in Table 1 below. Kis are in nM. % Figures are for % displacement at 10^−6 M for a single determination.

| SMILES | Ki [nM] | inhibition at 1 µM [%] |
| --- | --- | --- |
| CCC1=C(c2ccc3sccc3c2)N2CCN=C2S1.O=C(O)/C=C/C(=O)O [Example 31, 3-(benzo[b]thiophen-5-yl)-2-ethyl-5,6-dihydroimidazo[2,1-b]thiazole fumarate] | 102 | – |
| CSC1=C(c2cccc3sccc23)N2CCN=C2S1.O=C(O)/C=C/C(=O)O [Example 32, 3-(benzo[b]thiophen-4-yl)-2-(methylthio)-5,6-dihydroimidazo[2,1-b]thiazole fumarate] | 93 | – |
| CC1=C(c2cccc3sc(C)cc23)N2CCN=C2S1.Cl [Example 33, 2-methyl-3-(2-methylbenzo[b]thiophen-4-yl)-5,6-dihydroimidazo[2,1-b]thiazole hydrochloride] | – | 99 |
| Br.c1cc(C2=C(C3CC3)SC3=NCCN32)c2ccsc2c1 [Example 34, 3-(benzo[b]thiophen-4-yl)-2-cyclopropyl-5,6-dihydroimidazo[2,1-b]thiazole hydrobromide] | 45 | – |
| CC(C)C1=C(c2cccc3sccc23)N2CCN=C2S1.O=C(O)/C=C/C(=O)O [Example 35, 3-(benzo[b]thiophen-4-yl)-2-(1-methylethyl)-5,6-dihydroimidazo[2,1-b]thiazole fumarate] | 151 | – |
| Br.C=CCC1=C(c2cccc3sccc23)N2CCN=C2S1 [Example 36, 2-allyl-3-(benzo[b]thiophen-4-yl)-5,6-dihydroimidazo[2,1-b]thiazole hydrobromide] | 40 | – |
| Br.CC1=C(c2ccc3ccsc3c2)N2CCN=C2S1 [Example 37, 3-(benzo[b]thiophen-6-yl)-2-methyl-5,6-dihydroimidazo[2,1-b]thiazole hydrobromide] | 2.1 | – |
| Br.CC1=C(c2ccc(F)c3sccc23)N2CCN=C2S1 [Example 38, 3-(7-fluorobenzo[b]thiophen-4-yl)-2-methyl-5,6-dihydroimidazo[2,1-b]thiazole hydrobromide] | 29 | – |
| C=CC1=C(c2cccc3sccc23)N2CCN=C2S1.Cl [Example 39, 3-(benzo[b]thiophen-4-yl)-2-vinyl-5,6-dihydroimidazo[2,1-b]thiazole hydrochloride] | – | 85 |
